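Briefly, cells in 96-well plates were exposed to five compound concentrations for 48 h, and endpoints were estimated by linear interpolation. GI50 is the concentration that inhibits growth by half.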 Activity calls are given as the source filed them. No stated cut-off is given here; in the data, active = GI50 up to about 1.1 µM and inactive = higher. Residues, ends and D or L forms follow the SMILES beside them. *: point of attachment. Boc = CC(C)(C)OC(=O)*; OBn = c1ccc(CO*)cc1
Columns and labels:
Experiment in all cases: NCI anticancer screen, dose series, 48 h
K562 = test system: K562
786-0 = test system: 786-0
SNB-19 = test system: SNB-19
A498 = test system: A498
HOP-92 = test system: HOP-92
UACC-62 = test system: UACC-62
LOX IMVI = test system: LOX IMVI
SNB-75 = test system: SNB-75
Malme-3M = test system: Malme-3M
KM12 = test system: KM12
CAKI-1 = test system: CAKI-1
EKVX = test system: EKVX
A549 = test system: A549
MDA-MB-231 = test system: MDA-MB-231
ACHN = test system: ACHN
T47D = test system: T47D
RPMI-8226 = test system: RPMI-8226
NCI/ADR-RES = test system: NCI/ADR-RES
HT-29 = test system: HT-29
SK-MEL-5 = test system: SK-MEL-5

Structure (SMILES) | GI50 (K562) | GI50 (786-0) | GI50 (SNB-19) | GI50 (A498) | GI50 (HOP-92) | GI50 (UACC-62) | GI50 (LOX IMVI) | GI50 (SNB-75) | GI50 (Malme-3M) | GI50 (KM12) | GI50 (CAKI-1) | GI50 (EKVX) | GI50 (A549) | GI50 (MDA-MB-231) | GI50 (ACHN) | GI50 (T47D) | GI50 (RPMI-8226) | GI50 (NCI/ADR-RES) | GI50 (HT-29) | GI50 (SK-MEL-5)
O=c1cc(N2CCCC2)[nH]c(=O)n1-c1ccc(Cl)cc1 | > 100 µM (inactive) | > 100 µM (inactive) | > 100 µM (inactive) | > 100 µM (inactive) | > 100 µM (inactive) | > 100 µM (inactive) | > 100 µM (inactive) | > 100 µM (inactive) | > 100 µM (inactive) | > 100 µM (inactive) | > 100 µM (inactive) | > 100 µM (inactive) | > 100 µM (inactive) | > 100 µM (inactive) | > 100 µM (inactive) | > 100 µM (inactive) | > 100 µM (inactive) | > 100 µM (inactive) | > 100 µM (inactive) | 
O=C1Nc2ccccc2/C1=N/NC(=S)N1CCCCC1 |  | 0.301 µM (active) | 1.98 µM (inactive) | 0.356 µM (active) | 2.25 µM (inactive) | 1.15 µM (inactive) | 0.418 µM (active) | 1.52 µM (inactive) | 0.234 µM (active) | 0.0841 µM (active) | 0.904 µM (active) | 1.31 µM (inactive) | 0.428 µM (active) | 0.393 µM (active) | 0.397 µM (active) | 5.94 µM (inactive) | 0.299 µM (active) | 0.0415 µM (active) | 0.946 µM (active) | 0.0667 µM (active)
C=C1C(=O)[C@@]23CC[C@@H]4[C@@]5(C)CCC[C@@]4(OC5=O)[C@@]2(C)CC[C@@H]1C3 | 0.667 µM (active) | 0.565 µM (active) | 3.23 µM (inactive) | 3.24 µM (inactive) | 4.48 µM (inactive) | 1.48 µM (inactive) | 0.422 µM (active) | 2.8 µM (inactive) | 1.6 µM (inactive) | 2.59 µM (inactive) | 0.863 µM (active) | 3.15 µM (inactive) | 3.28 µM (inactive) | 1.73 µM (inactive) | 1.24 µM (inactive) | 4.89 µM (inactive) | 0.508 µM (active) | 3.08 µM (inactive) | 0.802 µM (active) | 0.962 µM (active)
O=c1ccc(=O)c2c1c1[nH]c3ccccc3c1c1c(=O)c3ccccc3c(=O)c21 | 5.32 µM (inactive) | > 10 µM (inactive) | > 10 µM (inactive) | > 10 µM (inactive) | 0.333 µM (active) | > 10 µM (inactive) | > 10 µM (inactive) | > 10 µM (inactive) | > 10 µM (inactive) | > 10 µM (inactive) | 6.71 µM (inactive) | > 10 µM (inactive) | > 10 µM (inactive) | 5.36 µM (inactive) | > 10 µM (inactive) | > 10 µM (inactive) | > 10 µM (inactive) | > 10 µM (inactive) | > 10 µM (inactive) | > 10 µM (inactive)
O=C(O)CCC(NC(=O)c1ccc(Oc2nc3ccccc3nc2-c2ccccc2)cc1)C(=O)O (stereo unspecified) | > 100 µM (inactive) | > 100 µM (inactive) | > 100 µM (inactive) | > 100 µM (inactive) | > 100 µM (inactive) | > 100 µM (inactive) | > 100 µM (inactive) | > 100 µM (inactive) | > 100 µM (inactive) | > 100 µM (inactive) | > 100 µM (inactive) | > 100 µM (inactive) | > 100 µM (inactive) | > 100 µM (inactive) | > 100 µM (inactive) | > 100 µM (inactive) |  | > 100 µM (inactive) | > 100 µM (inactive) | 
COc1ccccc1OC(=O)/C=C/c1ccccc1 |  | > 100 µM (inactive) | > 100 µM (inactive) | > 100 µM (inactive) | > 100 µM (inactive) | > 100 µM (inactive) | > 100 µM (inactive) | > 100 µM (inactive) | > 100 µM (inactive) | > 100 µM (inactive) | > 100 µM (inactive) | > 100 µM (inactive) | > 100 µM (inactive) | > 100 µM (inactive) | > 100 µM (inactive) | > 100 µM (inactive) | 5.33 µM (inactive) | > 100 µM (inactive) | > 100 µM (inactive) | > 100 µM (inactive)
COC/C=C\[C@]1(O)CCCC[C@@H]1CC(OC)OC | 43.5 µM (inactive) | > 100 µM (inactive) | > 100 µM (inactive) | > 100 µM (inactive) | > 100 µM (inactive) | > 100 µM (inactive) | > 100 µM (inactive) | > 100 µM (inactive) | > 100 µM (inactive) | > 100 µM (inactive) | > 100 µM (inactive) | > 100 µM (inactive) | > 100 µM (inactive) | > 100 µM (inactive) | > 100 µM (inactive) | > 100 µM (inactive) | 97.7 µM (inactive) | > 100 µM (inactive) | > 100 µM (inactive) | > 100 µM (inactive)
NNC(=O)CCC(NS(=O)(=O)c1ccc(Cl)cc1)C(=O)NN (stereo unspecified) | > 100 µM (inactive) | > 100 µM (inactive) | > 100 µM (inactive) | > 100 µM (inactive) | > 100 µM (inactive) | > 100 µM (inactive) | > 100 µM (inactive) | > 100 µM (inactive) | > 100 µM (inactive) | > 100 µM (inactive) | > 100 µM (inactive) | > 100 µM (inactive) | > 100 µM (inactive) | > 100 µM (inactive) | > 100 µM (inactive) | > 100 µM (inactive) |  | > 100 µM (inactive) | > 100 µM (inactive) | > 100 µM (inactive)
O=c1c2cnccc2cc2c3ccccc3ccn12 | 37.9 µM (inactive) | 84.7 µM (inactive) | > 100 µM (inactive) | > 100 µM (inactive) | > 100 µM (inactive) | 4.7 µM (inactive) | 18.9 µM (inactive) | 61 µM (inactive) | 57.3 µM (inactive) | 5.64 µM (inactive) | 9.89 µM (inactive) | 3.63 µM (inactive) | 45.8 µM (inactive) | > 100 µM (inactive) | 19.3 µM (inactive) | 32.4 µM (inactive) | 19.9 µM (inactive) | > 100 µM (inactive) | 28.2 µM (inactive) | 46.1 µM (inactive)
COc1ccc(Nc2nnc(-c3nsc4ccccc34)s2)cc1 | 47.2 µM (inactive) | 3.41 µM (inactive) | > 53.1 µM (inactive) | 3.78 µM (inactive) | 9.73 µM (inactive) | > 100 µM (inactive) | 41.1 µM (inactive) | 2.6 µM (inactive) |  | > 100 µM (inactive) | 54.5 µM (inactive) | 58.6 µM (inactive) | 27.4 µM (inactive) | 6.5 µM (inactive) | 11.1 µM (inactive) | 20.1 µM (inactive) | 22.9 µM (inactive) | 9.71 µM (inactive) | 39 µM (inactive) | > 84.3 µM (inactive)
COc1nc2ncc([C@@H](O)[C@H](O)CO)nc2c(=O)n1C | > 100 µM (inactive) | > 100 µM (inactive) | > 100 µM (inactive) | > 100 µM (inactive) | > 100 µM (inactive) | > 100 µM (inactive) | > 100 µM (inactive) | > 100 µM (inactive) | > 100 µM (inactive) | > 100 µM (inactive) | > 100 µM (inactive) | > 100 µM (inactive) | > 100 µM (inactive) | > 100 µM (inactive) | > 100 µM (inactive) | > 100 µM (inactive) | > 100 µM (inactive) | > 100 µM (inactive) | > 100 µM (inactive) | > 100 µM (inactive)
O=C1C(NCCc2cc(Br)c(O)c(Br)c2)=CC(=O)c2ncccc21 | 3.21 µM (inactive) | 7.29 µM (inactive) | 3.86 µM (inactive) | 4.08 µM (inactive) | 28.1 µM (inactive) | 1.83 µM (inactive) | 1.78 µM (inactive) | 1.31 µM (inactive) | 1.26 µM (inactive) | 4.43 µM (inactive) | 7.29 µM (inactive) | 16.3 µM (inactive) | 3.52 µM (inactive) | 10.2 µM (inactive) | 6.38 µM (inactive) | 13.5 µM (inactive) | 4.79 µM (inactive) | 9.2 µM (inactive) | 3.63 µM (inactive) | 1.47 µM (inactive)
CC(NC(=O)CNC(=O)OC(C)(C)C)C(=O)NC(Cc1ccccc1)C(=O)OCc1ccccc1 (stereo not drawn) (Boc-Gly-Ala-Phe-OBn; configuration not given here) | 40.3 µM (inactive) | 27.9 µM (inactive) | > 100 µM (inactive) | > 100 µM (inactive) | > 100 µM (inactive) | > 100 µM (inactive) | 7.23 µM (inactive) | 56.2 µM (inactive) | 63.4 µM (inactive) | > 100 µM (inactive) | > 100 µM (inactive) | > 100 µM (inactive) | > 100 µM (inactive) | > 100 µM (inactive) | > 100 µM (inactive) | > 100 µM (inactive) |  | > 100 µM (inactive) | 95.9 µM (inactive) | > 100 µM (inactive)
CC(C)=CCc1c2c(c3occ(-c4ccc(O)cc4)c(=O)c3c1O)CC(C(C)(C)O)O2 (stereo unspecified) [SENEGALENSIN] | 17.2 µM (inactive) | 16.8 µM (inactive) | 16.4 µM (inactive) | 16.1 µM (inactive) | 18 µM (inactive) | 16.4 µM (inactive) | 14.9 µM (inactive) | 17.8 µM (inactive) | 21.3 µM (inactive) | 16.8 µM (inactive) | 18.8 µM (inactive) |  | 13 µM (inactive) | 14.4 µM (inactive) | 14.8 µM (inactive) | 10.3 µM (inactive) | 9.77 µM (inactive) | 15.7 µM (inactive) | 12 µM (inactive) | 15.2 µM (inactive)

— ChEMBL document CHEMBL1201862, “PubChem BioAssay data set” (2004)
